Earlier results on one molecule are cited in patent US7371422B2, “Cereal grain kernels fortified with iron and calcium” (The Procter & Gamble Company, priority 2003, dated 2008).

The conditions of this data set: in adult college students (Bovell-Benjamin et al. 1999); relative to ferrous sulfate.

As for `NCC(=O)[O-].NCC(=O)[O-].[Fe+2]` [Ferrous bis-glycinate, ferrous bis-glycinate], the “absorbed ... times better than ferrous sulfate” value is on record as 4.7 times.
